Ten molecules from patent US9365583B2, “Substituted pyrazoles and uses thereof” (Genentech, Inc., priority 2013, dated 2016) can be followed below.

pKi: −log10 of the molar value.

The assay concerns the target T1, N-terminally GST-tagged DLK (catalytic domain amino acid 1-520) (Homo sapiens, UniProt Q12852).
T1 construct: N-terminally GST-tagged DLK (catalytic domain amino acid 1-520); purchased Carna Bioscience
T1 sequence (Q12852 1-520): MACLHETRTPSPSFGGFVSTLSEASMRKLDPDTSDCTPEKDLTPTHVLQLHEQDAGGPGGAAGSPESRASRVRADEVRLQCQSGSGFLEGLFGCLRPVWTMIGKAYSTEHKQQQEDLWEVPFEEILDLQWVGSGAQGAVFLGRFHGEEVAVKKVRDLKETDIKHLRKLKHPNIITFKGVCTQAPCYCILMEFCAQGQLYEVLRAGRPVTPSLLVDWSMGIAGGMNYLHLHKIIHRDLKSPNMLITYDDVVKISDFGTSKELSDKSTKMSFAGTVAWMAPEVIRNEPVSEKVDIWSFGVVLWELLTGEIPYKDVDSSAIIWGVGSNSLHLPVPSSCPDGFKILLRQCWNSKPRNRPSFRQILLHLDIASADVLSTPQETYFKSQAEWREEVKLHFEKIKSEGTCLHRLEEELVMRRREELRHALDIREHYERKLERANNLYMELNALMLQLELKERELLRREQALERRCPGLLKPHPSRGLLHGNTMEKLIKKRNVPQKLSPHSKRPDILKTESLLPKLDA
In words: DLK TR-FRET inhibition assay. To be noted: 5 nM GST-DLK, 40 nM HIS-MKK4 K131M substrate, 30 μM ATP, 60 minutes at ambient temperature. It counts as biochemical. The procedure, abridged:
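5 nM GST-DLK (aa 1-520), 40 nM HIS-MKK4 K131M and 30 μM ATP reacted 60 min at ambient temperature in HEPES pH 7.5 buffer with 10 mM MgCl2, compound 1:3 serially diluted from 20 uM. TR-FRET detection of phospho-MKK4 used Eu-cryptate anti-phospho-MKK4 plus D2 anti-HIS, read after 3 h (665/615 nm).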
Background: Time-resolved FRET reads energy transfer from a long-lived donor to a nearby acceptor.
`CC(C)n1nc(-c2cnc(N)c(C(F)(F)F)c2)cc1[C@@H]1[C@H]2CC[C@@H](N3CCOCC3)[C@H]21` (single isomer, unassigned) [compound 138, 5-(1-isopropyl-5-(2-morpholinobicyclo[3.1.0]hexan-6-yl)-1H-pyrazol-3-yl)-3-(trifluoromethyl) pyridin-2-amine] had a pKi of 7.89.

In the case of `CC(C)n1nc(-c2cnc(N)c(C(F)(F)F)c2)cc1[C@H]1[C@@H]2C[C@@H](N3CCCN(C)CC3)C[C@@H]21` [compound 210, 5-(1-isopropyl-5-((1R,3s,5S,6r)-3-(4-methyl-1,4-diazepan-1-yl)bicyclo[3.1.0]hexan-6-yl)-1H-pyrazol-3-yl)-3-(trifluoromethyl) pyridin-2-amine], the negative-log Ki (pKi) was 8.70.

In turn, `CCN1CCN([C@H]2C[C@@H]3[C@H](C2)[C@H]3c2cc(-c3cnc(N)c(C(F)(F)F)c3)nn2C(C)C)CC1` [compound 16, 5-(5-((1R,3r,5S,6r)-3-(4-ethylpiperazin-1-yl)bicyclo[3.1.0]hexan-6-yl)-1-isopropyl-1H-pyrazol-3-yl)-3-(trifluoromethyl)pyridin-2-amine] had a negative-log Ki (pKi) of 8.04. Next, `Nc1ncc(-c2cc([C@H]3[C@@H]4C[C@H](N5CCOCC5)C[C@@H]43)n(CC3CC3)n2)cc1C(F)(F)F` [compound 273, 5-(1-(cyclopropylmethyl)-5-((1R,3r,5S,6r)-3-morpholinobicyclo [3.1.0]hexan-6-yl)-1H-pyrazol-3-yl)-3-(trifluoromethyl)pyridin-2-amine]: 8.89; `CO[C@H]1CCN([C@H]2C[C@@H]3[C@H](C2)[C@H]3c2cc(-c3cnc(N)c(OC(F)F)c3)nn2C(C)C)C1` [compound 212, 3-(difluoromethoxy)-5-(1-isopropyl-5-((1R,3r,5S,6S)-3-((S)-3-methoxypyrrolidin-1-yl)bicyclo [3.1.0]hexan-6-yl)-1H-pyrazol-3-yl)pyridin-2-amine]: 8.36.

With `CC(C)n1nc(-c2cnc(N)c(OC(F)F)c2)cc1[C@H]1[C@@H]2C[C@H](N3CCOCC(F)(F)C3)C[C@@H]21` [compound 181, 5-(5-((1R,3r,5S,6r)-3-(6,6-difluoro-1,4-oxazepan-4-yl)bicyclo [3.1.0]hexan-6-yl)-1-isopropyl-1H-pyrazol-3-yl)-3-(difluoromethoxy) pyridin-2-amine], the pKi was 8.62.

Molecule `CC(C)n1nc(-c2cnc(N)c(C(F)(F)F)c2)cc1[C@H]1[C@@H]2C[C@@H](N(C)CC3COC3)C[C@@H]21` [compound 21, 5-(1-isopropyl-5-((1R,3s,5S,6r)-3-(methyl(oxetan-3-ylmethyl)amino)bicyclo[3.1.0]hexan-6-yl)-1H-pyrazol-3-yl)-3-(trifluoromethyl) pyridin-2-amine] gave a pKi of 8.38. Next, `CC(C)n1nc(-c2cnc3ccn([C@H](C)c4ccccn4)c3c2)cc1[C@H]1[C@@H]2C[C@H](N3CCOCC3)C[C@@H]21` [compound 26, 4-((1R,3R,5S,6r)-6-(1-isopropyl-3-(1-((R)-1-(pyridin-2-yl)ethyl)-1H-pyrrolo[3,2-b]pyridin-6-yl)-1H-pyrazol-5-yl)bicyclo[3.1.0]hexan-3-yl)morpholine]: 7.12; `Nc1ncc(-c2cc([C@H]3[C@@H]4C[C@@H](N5CCOCC5)C[C@@H]43)n(CC(F)F)n2)cc1C(F)(F)F` [compound 293, 5-(1-(2,2-difluoroethyl)-5-((1R,3s,5S,6r)-3-morpholinobicyclo [3.1.0]hexan-6-yl)-1H-pyrazol-3-yl)-3-(trifluoromethyl)pyridin-2-amine]: 8.52. To `Nc1ncc(-c2cc([C@H]3[C@@H]4C[C@@H](N5CCOCC5)C[C@@H]43)n(CC3CCC3)n2)cc1OC(F)F` [compound 128, 5-(1-(cyclobutylmethyl)-5-((1R, 3s,5S,6r)-3-morpholinobicyclo [3.1.0]hexan-6-yl)-1H-pyrazol-3-yl)-3-(difluoromethoxy)pyridin-2-amine] belongs 8.30.

In general, pKi refers to the Ki on a negative log10 scale, so that one unit is a factor of ten.
